What was measured:
[1] = stated in U.S. Pat. No. 1,860,286; cited from earlier work
[2] = Tolerance in the marmoset, oral; details: in vivo, read-out: oral doses tolerated (up to)
Experimental: (§1) No toxic effects or other undesirable effects have been observed with the compounds at doses at which they are active in the above-mentioned tests. Furthermore, as an indication of the lack of toxicity of a specific compound of the invention, namely 2-(2-dimethylamino-2-methylpropylthio)-4-methyl-3-phenylquinoline, that compound is tolerated in both the conscious dog and the marmoset at oral doses of up to 60 mg./kg.

[3] = Tolerance in the conscious dog, oral; details: in vivo, read-out: oral doses tolerated (up to)
Experimental: as §1

SMILES | antipyretic activity [1] | MTD [2] | MTD [3]
CCN(CC)CCOc1nc2ccccc2cc1-c1ccccc1 [2-(2-diethylaminoethoxy)-3-phenylquinoline] | exhibits antipyretic activity | – | –
Cc1c(-c2ccccc2)c(SCC(C)(C)N(C)C)nc2ccccc12.O=C(O)/C=C/C(=O)O.O=C(O)/C=C/C(=O)O [Example 3, 2-(2-dimethylamino-2-methylpropylthio)-4-methyl-3-phenylquinoline difumarate] | – | ≥ 60 mg/kg | ≥ 60 mg/kg

Source: patent US4607039A, “Quinoline derivatives which are 5-hydroxytryptamine antagonists” (Imperial Chemical Industries PLC, priority 1982, dated 1986)
